Measurements taken from patent US8895069B2, “Drug delivery system using hyaluronic acid-peptide conjugate micelle” (Postech Academy-Industry Foundation, priority 2011, dated 2014).
Ends that are not written are not given here.

Legend:
[1] = test system: retinal and choroidal neovascularization (CNV); assay: Laser-induced retinal and choroidal neovascularization (CNV); assay type: in vivo, Brovin-Norway (BN) male rats; conditions: negative control = 100%; intravitreal 10 μL, peptide concentration 10 mg/ml; 2 weeks after laser; conjugate = higher peptide content
Experimental: Four groups consisted of a negative control group, a hyaluronic acid test group, an anti-Flt1 peptide (GGNQWFI) (SEQ ID NO: 3) test group, a test group of the hyaluronic acid-peptide conjugate with a higher peptide content as prepared from Preparation Example 3 (HA-GGNQWFI(2)). The anti-Flt1 peptide sample and the hyaluronic acid-peptide conjugate sample were made to have an identical peptide concentration of 10 mg/ml. First, the rat was put under anesthesia by being treated with 0.2 mL of a mixed solution (1:1) of 100 mg/ml of ketamine hydrochloride and 20 mg/ml of xylazine hydrochloride. […] The effect of inhibiting retinal and choroidal neovascularization was determined with a fluorescence microscope analysis using dextran-FITC (MW=40,000) after 2 weeks from the laser-induced damage. After being put under anesthesia, the rat was injected with 500 μL of a dextran-FITC solution (25 mg/mL) at its tail vein, and in 5 minutes, the choroid was separated and observed with a fluorescence microscope equipped with a digital camera (Olympus, Tokyo, Japan). The obtained images were analyzed with Image J program (NIH, Bethesda, Md.).

[2] = test system: retinal blood vessel; assay: Electron microscopy of retinal blood vessel in diabetic retinopathy; assay type: in vivo, Sprague Dawley (SD) male rats; conditions: diabetic retinopathy rats
[3] = test system: lung inflammation; assay: Bronchoalveolar lavage (BAL) cellularity in OVA/LPS asthma model; assay type: in vivo, BALB/c mice; conditions: intranasal
Experimental: As the laboratory mouse, BALB/c mice (female, 6 week old, 5 per each group) were used. Five groups consisted of a normal control group (PBS-PBS: wherein asthma was not induced and the mice were treated with PBS), a negative control group (OVA/LPS10-OVA: wherein asthma was induced by using OVA and LPS, and the mice were treated with PBS only), a hyaluronic acid test group, an anti-Flt1 peptide (GGNQWFI) (SEQ ID NO: 3) test group, and a test group of the hyaluronic acid-peptide conjugate obtained from Preparation Example 3. The dose of the hyaluronic acid-peptide conjugate was changed between 10 […].
First, in order to make a mouse asthma model, each mouse was sensitized by intranasal administration of 75 μg of ovalbumin (OVA) (Calbiochem, La Jolla, Calif.) and 10 μg of lipopolysaccharide (LPS) (Calbiochem, La Jolla, Calif.) on 0 day, the first day, the second day, and the 7th day. Then, OVA (50 ug/head), hyaluronic acid (500 μg/head), anti-Flt1 peptide (GGNQWFI) (SEQ ID NO: 3) (10, 30, 100, 300, 1000 μg/head), and the hyaluronic acid-peptide conjugate with a low peptide content prepared from Preparation Example 3 ([…], based on the peptide content) were intranasally administered, respectively, after 14 days, 15 days, 21 days, 22 days to challenge. […]

[4] = test system: corneal neovascularization; assay: Corneal neovascularization, genistein-loaded micelle (Experimental Example 13); assay type: in vivo, Albino Sprague Dawley male rats; conditions: rat cornea; samples in PBS: Avastin 10 mg/ml, conjugate and micelle 3.2 mg/ml peptide; control group 86%

Row | Substance | average intensity of the fluorescence of CNV lesion [1] | structure of the retinal blood vessel (electron microscope) [2] | bronchoalveolar lavage (BAL) cellularity ([3]; 1000 μg/head) | bronchoalveolar lavage (BAL) cellularity, dose dependence ([3]; 10-1000 per head based on peptide content) | average ratio of the neovascular area [4]
1 | GGNQWFI [anti-Flt1 peptide, GGNQWFI] | 61.4±4.4% | the blood vessel had a rounded shape although the endothelial cell layer was thin | – | – | –
2 | HA-GGNQWFI: hyaluronic acid (MW 100 kDa) conjugated with GGNQWFI, 20 peptides per one molecule of HA-TBA (also: conjugated to hyaluronic acid, about 20 peptides per HA) | – | – | less than half of the cellularity in the negative control group | sharply decreased and was found to be dose-dependent | 30%
